# Data reported in patent US20220257722A1, “COMPOSITIONS AND METHODS OF TREATING AND PREVENTING SYSTEMIC COMPLICATIONS OF ACUTE ILLNESS” (United States Government As Represented By The Department …, priority 2019, published 2022).
# Key:
# rat small intestine = test: LPS-induced small intestinal FD4 paracellular permeability in vivo (PV and arterial FD4); conditions: for TDG-induced inhibitory effect on PV FD4 levels: LPS 6 hr + TDG 6 hr
# Protocol: LPS treatment. Animals were treated with LPS (5 mg/kg, ip) once at 9 am. For the acute experiments, the animals were fasted overnight and were treated with LPS 1, 3, or 6 hr before the anesthesia for small intestinal perfusion of FD4 as described herein. For the 24-hr experiments, the animals fed ad libitum were treated with LPS 24 hr before anesthesia induction used for the perfusion study. As a control, saline was injected ip at the corresponding time before the experiments. The animal groups were expressed as control, LPS 1 hr, LPS 3 hr, LPS 6 hr, and LPS 24 hr.
# Small intestinal perfusion. The small intestinal perfusion from the duodenum, and portal vein (PV) cannulation were prepared by the modified methods. Under isoflurane anesthesia (2%), the animal was placed […] on a recirculating heating block system (Summit Medical Systems, Bend, Oreg., USA) in order to maintain body temperature at 36-37° C. Prewarmed saline was infused via the right femoral vein at 1.08 ml/h using a Harvard infusion pump (Harvard Apparatus, Holliston, Mass., USA). The abdomen was incised, and the PV was cannulated with a polyethylene (PE)-50 tube attached with 23G needle and fixed by methylacrylate adhesive at the insertion site. The tube was filled with heparinized saline enabling repeated blood sampling. Samples of 0.2 ml PV blood were collected every 15 min, followed by flushing with 0.2 ml heparinized saline. A polyethylene tube (diameter 5 mm) filled with PBS was inserted through the forestomach and tied at 0.5 cm caudal from the pyloric ring. After bolus perfusion of 2-ml phosphate buffer saline (PBS, 10 mM, pH 7.4) into the duodenum from the tube, followed by stabilization for ˜30 min, the time was set as t=0. FD4 (0.1 mM) in 10-ml PBS was slowly perfused at t=0 min for 30 sec. Blood samples were collected into a 0.5-ml tubes containing 1-μl each of EDTA (0.5 M) and the dipeptidyl peptidase-4 (DPP4) inhibitor NVP-728 (1 mM), and immediately centrifuged at 5,000× g for 5 min, after which the plasma was stored on ice or at −80 ° C. until use. At 90 min, after collection of PV samples, arterial blood was taken from abdominal aorta, followed by euthanasia by thoracotomy.
# Appearance of FD4 into the PV and arterial plasma was assessed by fluorescence intensity measurement using a multi-mode microplate reader (Synergy-2, BioTek Instruments, Inc., Winooski, VT, USA). Fluorescence intensity in t=0 sample as background was subtracted from the fluorescence values measured in other time point samples. FD4 content was calculated according to the standard curve generated each time of measurement.
# Drug treatment for the intestinal perfusion study. The following drugs were administered at the time after LPS treatment: the GLP2R partial agonist/antagonist GLP-2(3-33) (1 mg/kg; 280 nmol/kg, ip) was given immediately after LPS treatment (0 hr after LPS treatment); GLP-2 (380 μg/kg; 100 nmol/kg, ip) was given 6 hr after LPS treatment; a stable GLP-2 analog TDG (50 μg/kg; 13.3 nmol/kg) was ip injected 0, 3, 6, or 12 hr after LPS treatment or iv injected at t=0 min just before the perfusion of FD4 solution (6 or 24 hr after LPS treatment). In acute experiments, TDG was iv injected at t=0 min (6 hr after LPS treatment) with or without the pretreatment of the selective IGF1 receptor (IGF1R) tyrosine kinase inhibitor AEW541 (0.1 mg/kg, iv), the selective EGF receptor (EGFR) tyrosine kinase inhibitor PD153035 (10 μg/kg, iv) or PG97-269 (1 mg/kg, iv) at t=−10 min, or the co-perfusion of L-NAME (0.1 mM, pf) with FD4 solution.
# rat jejunal mucosa = test: LPS mucosal-to-serosal transport in Ussing-chambered rat jejunal mucosa (LAL test); type: cell-based; conditions: for OA/TCA-augmented LPS transport (t=30-45 min): mucosal LPS 10 μg/ml + OA 30 mM/TCA 0.1 mM; for OA/TCA-augmented LPS transport (t=30-45 min) / LPS transport at t=15 min (LPS alone, absence of OA/TCA): drug added 10 or 15 min before LPS; for LPS transport at t=15 min (LPS alone, absence of OA/TCA): mucosal LPS 10 μg/ml
# Protocol: Short-circuit current measurements in Ussing chambered preparations. Mucosa-submucosa preparations were prepared from the mid-jejunum (˜20 cm from the pyloric ring) by muscle stripping using fine forceps under a stereomicroscope. Two or four preparations were prepared from one animal. The tissue was then mounted between two hemi-sliders with an aperture=0.3 cm^2 (Physiologic Instruments, San Diego, Calif., USA). Chambers were bathed with serosal and luminal bathing solutions in a volume of 4 ml each, maintained at 37° C. using a water recirculating heating system. The serosal Krebs-Ringer solution contained (in mM) NaCl, 117; KCl, 4.7; MgCl2, 1.2; NaH2PO4, 1.2; CaCl2, 2.5; NaHCO3, 25; glucose, 11; and bubbled with 95% O2-5% CO2 to maintain pH at 7.4. The luminal bathing solution contained NaCl, 136; KCl, 2.6; CaCl2, 1.8; HEPES, 10 (pH 7.0); mannitol, 11; and bubbled with 100% O2. The tissues were short-circuited by a voltage clamp (VCC MC6, Physiologic Instruments) at zero potential difference with automatic compensation for solution resistance. Short-circuit current (Isc) was continuously measured with tissue conductance (Gt) and TEER (Ω·cm^2) determined every 20 sec in order to assess the tissue integrity during the LPS and lipid exposure. The current was recorded by the DataQ system (Physiologic Instruments). IND (10 μM) was added to the serosal bath to eliminate the effects of endogenous prostaglandin production. The tissues were stabilized for ˜30 min before the addition of test chemicals.
# LPS movement from mucosal to serosal solution. LPS movement m-to-s was assessed using a LAL test kit (Pierce Chromogenic Endotoxin Quant Kit, Pierce Biotechnology, Rockford, Ill., USA), which eliminates non-specific detection of (1,3)-β-D-glucan, then reduces false-positive LPS measurements. After tissue stabilization, time was set as t=0 min. Fifty μl of the serosal solution was collected at 0 min as a blank sample, followed by collection at t=15, 30 and 45 min. At t=0 min, LPS (10 μg/ml) was added into the mucosal solution. Vehicle (PBS alone), TCA alone (0.1 mM) in PBS or OA (3, 10, 30 mM) with TCA (0.1 mM) in PBS was added into the mucosal solution at t=15 min. The tissues were pretreated with drugs 10 or 15 min before the addition of LPS (i.e. at t=−10 or −15 min). The collected serosal solutions were kept at −80° C. until use. LPS content in the serosal solutions was measured with the LAL test according to the manufacturer's protocol. The value of background at t=0 min was subtracted and the serosal LPS appearance was expressed as Δ[LPS] (EU/ml). In some experiments, FITC-LPS (10 μg/ml) was used instead of LPS. Serosal FITC-LPS content was assessed by FITC fluorescence intensity measurement using a multi-mode microplate reader (Synergy-2, BioTek Instruments, Inc., Winooski, Vt., USA). To detect macromolecule m-to-s movement across the mucosa, FD4 (0.1 mM) was applied into the mucosal bath and serosal FD4 content was assessed by FITC fluorescence intensity measurement.
# Ussing chamber study: drug treatment. The following drugs were pretreated by addition to the mucosal (m) or serosal (s) bath 10 or 15 min before LPS addition to the mucosal bath: the lipid raft inhibitor MβCD (1 mM, m), the CD36 inhibitor SSO (0.1 mM, m), the muscarinic agonist CCh (10 μM, s), a competitive substrate for IAP (IAP inhibitor) GP (10 mM, m) (47), GLP-2 (100 nM, s), the dipeptidyl peptidase-4 (DPP4) inhibitor NVP-728 (10 μM, s) (36), the stable GLP-2 analog TDG (100 nM) (13), the insulin-like growth factor-1 (IGF-1) receptor tyrosine kinase inhibitor NVP-AEW-541 (10 μM, s) (22), the epidermal growth factor (EGF) tyrosine kinase inhibitor PD153035 (1 μM, s) (6), the nitric oxide (NO) synthase (NOS) inhibitor L-NAME (0.1 mM, s) and the selective VPAC1 antagonist PG97-269 (1 μM) (26).
# [1] = pig, in vivo; cited from earlier work
# [2] = inhibitor iv at t=-10 min or co-perfused
# [3] = LPS 24 hr model, GLP-2 380 μg/kg ip 6 hr after LPS
# [4] = LPS 6 hr model, GLP-2(3-33) 1 mg/kg ip immediately after LPS
# [5] = inhibitor serosal before GLP-2 + NVP-728
compound,measurement,setting,value
Nc1ncnc2c1c(-c1cccc(OCc3ccccc3)c1)cn2[C@H]1C[C@@H](CN2CCC2)C1 [NVP-AEW-541],TDG-induced inhibitory effect on PV FD4 levels,rat small intestine; [2],no effect
"O=P(O)(O)OCC(O)CO (stereo not drawn) [GP, glycerol phosphate]",OA/TCA-augmented LPS transport (t=30-45 min),rat jejunal mucosa,further increased
same,"LPS transport at t=15 min (LPS alone, absence of OA/TCA)",rat jejunal mucosa,no effect
N#Cc1ccc(NCCNCC(=O)N2CCC[C@H]2C#N)nc1 [NVP-728],OA/TCA-augmented LPS transport (t=30-45 min),rat jejunal mucosa,no effect
same,"LPS transport at t=15 min (LPS alone, absence of OA/TCA)",rat jejunal mucosa,no effect
HADGSFSDEMNTILDNLATRDFINWLIQTKITD [GLP-2],"LPS transport during OA/TCA exposure period, GLP-2 with NVP-728","rat jejunal mucosa; GLP-2 100 nM + DPP4 inhibitor NVP-728 10 μM, serosal",inhibited
same,OA/TCA-augmented LPS transport (t=30-45 min),rat jejunal mucosa,no effect
same,"LPS transport at t=15 min (LPS alone, absence of OA/TCA)",rat jejunal mucosa,no effect
same,PV FD4 levels,rat small intestine; [3],reduced
same,arterial FD4 levels,rat small intestine; [3],reduced
same,t1/2 of exogenous GLP-2,[1],~7 min
"GLP-2(3-33): GLP-2 receptor partial agonist/antagonist; truncated GLP-2 peptide missing the first 2 amino acids (DGSFSDEMNTILDNLATRDFINWLIQTKITD; Glucagon-like peptide 2; UniProt P06883 148-178, looked up, fragment)",OA/TCA-augmented LPS transport (t=30-45 min),rat jejunal mucosa,no effect
same,"LPS transport at t=15 min (LPS alone, absence of OA/TCA)",rat jejunal mucosa,no effect
same,PV FD4 levels at t=60-90 min,rat small intestine; [4],further increased
same,arterial FD4 levels at t=90 min,rat small intestine; [4],further increased
COc1cc2ncnc(Nc3cccc(Br)c3)c2cc1OC [PD153035],"amount of LPS transport after addition of OA/TCA, in presence of GLP-2 + NVP-728",rat jejunal mucosa; [5],further increased
same,"amount of LPS transport at t=15 min (prior to OA/TCA exposure), in presence of GLP-2 + NVP-728",rat jejunal mucosa; [5],increased
same,TDG-induced inhibitory effect on PV FD4 levels,rat small intestine; [2],no effect
same,Arterial FD4 levels in LPS 6 hr + TDG 6 hr rats,"rat small intestine; t=90 min, inhibitor iv at t=-10 min or co-perfused",not affected
"C[N+](C)(C)CCOC(N)=O [CCh, carbachol]",OA/TCA-augmented LPS transport (t=30-45 min),rat jejunal mucosa,further increased
same,"LPS transport at t=15 min (LPS alone, absence of OA/TCA)",rat jejunal mucosa,increased
